Measured values reported in US20220281848A1, “PYRAZOLE-SUBSTITUTED PYRROLIDINONES AS HERBICIDES” (FMC Corporation, priority 2019, published 2022).

Tests used:
Type in all cases: in vivo
corn (Zea mays, ZEAMX) = experiment: Test A pre-emergence, corn; settings: after 13 d
Method in brief: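 Damage rated 0–100 (100 = total) 13 d after spraying. Application was one day post-sowing at 15.625, 62.5 or 250 g/ha, formulated in 50:50 acetone/water plus 0.5% Tween 20. Pots held in glasshouse at 24/16 °C day/night, 14 h light, 65% humidity, watered twice daily.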

[1] = system: ivy-leaved morning glory (Ipomoea hederacea, IPOHE); experiment: Test A post-emergence, ivy-leaved morning glory; settings: after 13 d
Method in brief: (§1)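 Foliar application to 8-day-old seedlings at 15.625, 62.5 or 250 g/ha; phytotoxicity scored 0–100 after 13 d.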

[2] = system: velvetleaf (Abutilon theophrasti, ABUTH); experiment: Test A post-emergence, velvetleaf; settings: after 13 d
Method in brief: as §1

wheat = experiment: Test D pre-emergence, wheat seed treated with a herbicide safener; settings: 100=total damage, 0=no damage
Method in brief: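 Damage was rated visually from 0 (none) to 100 (total), at 20 DAA for pre-emergence and 15 d for post-emergence. Plants grew from safener-treated seed in a glasshouse at 24/18° C. or 20/16° C. day/night, 65% humidity, watered twice daily.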

plants = experiment: Test D post-emergence, other plants of Tables D2 and D4; settings: "Cereals" Postemergent, evaluated after 15 d
Method in brief: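 Seeds treated with herbicide safener; sown in soil; glasshouse, 16 h light, 65% humidity. Sprayed day 1 (pre) or ~day 12 (post). Spray in 0.2% v/v adjuvant. Scored 0–100 damage: 20 DAA pre, 15 d post.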

CN1CC(c2cc(C(F)(F)F)n(C)n2)C(C(=O)Nc2cccc(F)n2)C1=O (racemic) [Compound 24]
0: damage to plant (100=total damage; 0=no damage) ZEAMX (corn (Zea mays, ZEAMX); Pre-Emergence at 15.625 g/ha) | damage to plant (100=total damage; 0=no damage) ABUTH ([2]; Post-Emergence at 15.625 g/ha) | damage to plant (100=total damage; 0=no damage) ABUTH ([2]; Post-Emergence at 62.5 g/ha) | damage to plant (100=total damage; 0=no damage) ABUTH ([2]; Post-Emergence at 250 g/ha) | damage to plant, TRZAW (wheat; rate 15, 20 DAA) | damage to plant, TRZAW (wheat; rate 30, 20 DAA) | damage to plant, TRZAW (wheat; rate 60, 20 DAA) | damage to plant, TRZAW (wheat; rate 130, 20 DAA) | damage to plant, TRZAW (wheat; rate 250, 20 DAA) | ALOMY damage rating (100=total damage to plant; 0=no damage to plant) (plants; Rates 130) | ALOMY damage rating (100=total damage to plant; 0=no damage to plant) (plants; Rates 250) | ALOMY damage rating (100=total damage to plant; 0=no damage to plant) (plants; Rates 500) | AVEFA damage rating (100=total damage to plant; 0=no damage to plant) (plants; Rates 130) | AVEFA damage rating (100=total damage to plant; 0=no damage to plant) (plants; Rates 250) | AVEFA damage rating (100=total damage to plant; 0=no damage to plant) (plants; Rates 500) | BEAVA damage rating (100=total damage to plant; 0=no damage to plant) (plants; Rates 130) | BEAVA damage rating (100=total damage to plant; 0=no damage to plant) (plants; Rates 250) | BEAVA damage rating (100=total damage to plant; 0=no damage to plant) (plants; Rates 500) | BROTE damage rating (100=total damage to plant; 0=no damage to plant) (plants; Rates 130) | BROTE damage rating (100=total damage to plant; 0=no damage to plant) (plants; Rates 250) | BROTE damage rating (100=total damage to plant; 0=no damage to plant) (plants; Rates 500) | BRSNN damage rating (100=total damage to plant; 0=no damage to plant) (plants; Rates 130) | BRSNN damage rating (100=total damage to plant; 0=no damage to plant) (plants; Rates 250) | BRSNN damage rating (100=total damage to plant; 0=no damage to plant) (plants; Rates 500) | CHEAL damage rating (100=total damage to plant; 0=no damage to plant) (plants; Rates 130) | GALAP damage rating (100=total damage to plant; 0=no damage to plant) (plants; Rates 130) | GALAP damage rating (100=total damage to plant; 0=no damage to plant) (plants; Rates 250) | HORVW damage rating (100=total damage to plant; 0=no damage to plant) (plants; Rates 130) | HORVW damage rating (100=total damage to plant; 0=no damage to plant) (plants; Rates 250) | HORVW damage rating (100=total damage to plant; 0=no damage to plant) (plants; Rates 500) | KCHSC damage rating (100=total damage to plant; 0=no damage to plant) (plants; Rates 130) | KCHSC damage rating (100=total damage to plant; 0=no damage to plant) (plants; Rates 250) | KCHSC damage rating (100=total damage to plant; 0=no damage to plant) (plants; Rates 500) | LOLPE damage rating (100=total damage to plant; 0=no damage to plant) (plants; Rates 130) | LOLPE damage rating (100=total damage to plant; 0=no damage to plant) (plants; Rates 250) | LOLPE damage rating (100=total damage to plant; 0=no damage to plant) (plants; Rates 500) | POAAN damage rating (100=total damage to plant; 0=no damage to plant) (plants; Rates 130) | POAAN damage rating (100=total damage to plant; 0=no damage to plant) (plants; Rates 250) | POAAN damage rating (100=total damage to plant; 0=no damage to plant) (plants; Rates 500) | POLCO damage rating (100=total damage to plant; 0=no damage to plant) (plants; Rates 130) | POLCO damage rating (100=total damage to plant; 0=no damage to plant) (plants; Rates 250) | POLCO damage rating (100=total damage to plant; 0=no damage to plant) (plants; Rates 500) | SINAR damage rating (100=total damage to plant; 0=no damage to plant) (plants; SINAR, Rates 130)
40: CHEAL damage rating (100=total damage to plant; 0=no damage to plant) (plants; Rates 500)
30: damage to plant (100=total damage; 0=no damage) ZEAMX (corn (Zea mays, ZEAMX); Pre-Emergence at 62.5 g/ha)
10: damage to plant (100=total damage; 0=no damage) IPOHE ([1]; Post-Emergence at 15.625 g/ha) | damage to plant, TRZAW (wheat; rate 500, 20 DAA) | CHEAL damage rating (100=total damage to plant; 0=no damage to plant) (plants; Rates 250)
50: damage to plant (100=total damage; 0=no damage) IPOHE ([1]; Post-Emergence at 250 g/ha)
20: damage to plant (100=total damage; 0=no damage) IPOHE ([1]; Post-Emergence at 62.5 g/ha) | GALAP damage rating (100=total damage to plant; 0=no damage to plant) (plants; Rates 500)
80: damage to plant (100=total damage; 0=no damage) ZEAMX (corn (Zea mays, ZEAMX); Pre-Emergence at 250 g/ha)
